Source: the supplement of paper PMC10307832

Columns and labels:
Assay in all cases: relative viability (nuclei count vs DMSO), 5 days (fraction); higher = more cells survive
[1] = test system: NCI-H2023
How it was run: (§1)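 Each reported value is a median over duplicate plates. It expresses relative viability: treated-well nuclei count divided by vehicle-well nuclei count. Lung cancer cell lines in 1536-well plates were dosed by pin tool a day after seeding, alone with one drug or with a fixed anchor-drug dose plus five library-drug doses (not always all listed) in √10 steps, and nuclei were counted after 5 days.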

[2] = test system: NCI-H2009
How it was run: as §1

[3] = test system: HARA
How it was run: as §1

[4] = test system: COR-L23
How it was run: as §1

[5] = test system: SK-LU-1
How it was run: as §1

[6] = test system: NCI-H1793
How it was run: as §1

[7] = test system: A-427
How it was run: as §1

[8] = test system: NCI-H1734
How it was run: as §1

[9] = test system: HCC-15
How it was run: as §1

[10] = test system: HCC-366
How it was run: as §1

[11] = test system: HCC-78
How it was run: as §1

[12] = test system: NCI-H2228
How it was run: as §1

[13] = test system: NCI-H1993
How it was run: as §1

[14] = test system: LC-2-ad
How it was run: as §1

[15] = test system: NCI-H1944
How it was run: as §1

[16] = test system: NCI-H838
How it was run: as §1

[17] = test system: EMC-BAC-2
How it was run: as §1

[18] = test system: NCI-H23
How it was run: as §1

[19] = test system: NCI-H2126
How it was run: as §1

[20] = test system: ABC-1
How it was run: as §1

[21] = test system: UMC-11
How it was run: as §1

[22] = test system: NCI-H2405
How it was run: as §1

`C=C1C(=O)O[C@@H](CCCCCCCC)[C@@H]1C(=O)O` [C-75] + CS(=O)(=O)CCNCc1ccc(-c2ccc3ncnc(Nc4ccc(OCc5cccc(F)c5)c(Cl)c4)c3c2)o1 [Lapatinib] (partner 2 µM) gave a relative viability ([1]; first compound 0.08 µM) of 0.963, a relative viability ([1]; first compound 0.253 µM) of 0.956 and a relative viability ([1]; first compound 0.8 µM) of 0.737. The relative viability ([1]; first compound 2.53 µM) was 0.691, the relative viability ([1]; first compound 8 µM) was 0.653 and the relative viability ([2]; first compound 0.08 µM) was 0.984. The relative viability ([2]; first compound 0.253 µM) was 0.88, the relative viability ([2]; first compound 0.8 µM) was 0.901 and the relative viability ([2]; first compound 2.53 µM) was 0.939. For the same molecule, the relative viability ([2]; first compound 8 µM) was 0.762, the relative viability ([3]; first compound 0.08 µM) was 0.619 and the relative viability ([3]; first compound 0.253 µM) was 0.511. The relative viability ([3]; first compound 0.8 µM) was 0.646, the relative viability ([3]; first compound 8 µM) was 0.825 and the relative viability ([4]; first compound 0.08 µM) was 0.868. It also gave a relative viability ([4]; first compound 0.253 µM) of 0.94, a relative viability ([4]; first compound 0.8 µM) of 0.919 and a relative viability ([4]; first compound 2.53 µM) of 0.469. For the same molecule, the relative viability ([4]; first compound 8 µM) was 1.01, the relative viability ([5]; first compound 0.08 µM) was 0.795 and the relative viability ([5]; first compound 0.253 µM) was 0.91. For the same molecule, the relative viability ([5]; first compound 0.8 µM) was 0.843, the relative viability ([5]; first compound 2.53 µM) was 0.795 and the relative viability ([5]; first compound 8 µM) was 0.577. It also gave a relative viability ([6]; first compound 0.08 µM) of 0.635, a relative viability ([6]; first compound 0.253 µM) of 0.785 and a relative viability ([6]; first compound 0.8 µM) of 0.493. It also gave a relative viability ([6]; first compound 2.53 µM) of 0.483, a relative viability ([6]; first compound 8 µM) of 0.713 and a relative viability ([7]; first compound 0.08 µM) of 1.01. The relative viability ([7]; first compound 0.253 µM) was 1.07, the relative viability ([7]; first compound 0.8 µM) was 1.02 and the relative viability ([7]; first compound 2.53 µM) was 0.997. It also gave a relative viability ([7]; first compound 8 µM) of 1.01, a relative viability ([8]; first compound 0.08 µM) of 0.981 and a relative viability ([8]; first compound 0.253 µM) of 1.13. The relative viability ([8]; first compound 0.8 µM) was 1.02, the relative viability ([8]; first compound 2.53 µM) was 0.362 and the relative viability ([8]; first compound 8 µM) was 0.908. The relative viability ([9]; first compound 0.08 µM) was 0.838, the relative viability ([9]; first compound 0.253 µM) was 0.808 and the relative viability ([9]; first compound 0.8 µM) was 0.878. The relative viability ([9]; first compound 2.53 µM) was 0.839, the relative viability ([9]; first compound 8 µM) was 0.894 and the relative viability ([10]; first compound 0.08 µM) was 1.04. The relative viability ([10]; first compound 0.253 µM) was 1.19, the relative viability ([10]; first compound 0.8 µM) was 1 and the relative viability ([10]; first compound 8 µM) was 0.872. For the same molecule, the relative viability ([11]; first compound 0.08 µM) was 1.05, the relative viability ([11]; first compound 0.253 µM) was 0.6 and the relative viability ([11]; first compound 0.8 µM) was 0.464. It also gave a relative viability ([11]; first compound 2.53 µM) of 0.348, a relative viability ([11]; first compound 8 µM) of 0.756 and a relative viability ([12]; first compound 0.08 µM) of 1.11. For the same molecule, the relative viability ([12]; first compound 0.253 µM) was 1.19, the relative viability ([12]; first compound 0.8 µM) was 1.1 and the relative viability ([12]; first compound 2.53 µM) was 0.903. It also gave a relative viability ([12]; first compound 8 µM) of 1.03, a relative viability ([13]; first compound 0.08 µM) of 0.796 and a relative viability ([13]; first compound 0.253 µM) of 0.825. The relative viability ([13]; first compound 0.8 µM) was 0.807, the relative viability ([13]; first compound 2.53 µM) was 0.763 and the relative viability ([13]; first compound 8 µM) was 0.667. It also gave a relative viability ([14]; first compound 0.08 µM) of 0.982, a relative viability ([14]; first compound 0.253 µM) of 0.919 and a relative viability ([14]; first compound 0.8 µM) of 0.898. It also gave a relative viability ([14]; first compound 8 µM) of 1.01, a relative viability ([15]; first compound 0.08 µM) of 0.792 and a relative viability ([15]; first compound 0.253 µM) of 0.755. For the same molecule, the relative viability ([15]; first compound 0.8 µM) was 0.685, the relative viability ([15]; first compound 8 µM) was 0.682 and the relative viability ([16]; first compound 0.08 µM) was 1.01. The relative viability ([16]; first compound 0.253 µM) was 0.726, the relative viability ([16]; first compound 0.8 µM) was 0.856 and the relative viability ([16]; first compound 2.53 µM) was 0.803. For the same molecule, the relative viability ([16]; first compound 8 µM) was 0.876, the relative viability ([17]; first compound 0.08 µM) was 0.897 and the relative viability ([17]; first compound 0.253 µM) was 0.85. It also gave a relative viability ([17]; first compound 0.8 µM) of 0.882, a relative viability ([17]; first compound 2.53 µM) of 0.721 and a relative viability ([17]; first compound 8 µM) of 0.998. It also gave a relative viability ([18]; first compound 0.08 µM) of 1.16, a relative viability ([18]; first compound 0.253 µM) of 1.34 and a relative viability ([18]; first compound 0.8 µM) of 0.83. The relative viability ([18]; first compound 2.53 µM) was 0.851, the relative viability ([18]; first compound 8 µM) was 0.546 and the relative viability ([19]; first compound 0.08 µM) was 0.774. It also gave a relative viability ([19]; first compound 0.253 µM) of 0.914, a relative viability ([19]; first compound 0.8 µM) of 0.728 and a relative viability ([19]; first compound 2.53 µM) of 0.62. For the same molecule, the relative viability ([19]; first compound 8 µM) was 0.758, the relative viability ([20]; first compound 0.08 µM) was 1.1 and the relative viability ([20]; first compound 0.253 µM) was 1.33. The relative viability ([20]; first compound 0.8 µM) was 1.17, the relative viability ([20]; first compound 2.53 µM) was 0.981 and the relative viability ([20]; first compound 8 µM) was 0.929. It also gave a relative viability ([21]; first compound 0.08 µM) of 1.01, a relative viability ([21]; first compound 0.253 µM) of 1.08 and a relative viability ([21]; first compound 0.8 µM) of 0.764. The relative viability ([21]; first compound 2.53 µM) was 0.795, the relative viability ([21]; first compound 8 µM) was 0.655 and the relative viability ([22]; first compound 0.08 µM) was 1.07. It also gave a relative viability ([22]; first compound 0.253 µM) of 0.772, a relative viability ([22]; first compound 0.8 µM) of 1 and a relative viability ([22]; first compound 2.53 µM) of 1.07. It also gave a relative viability ([22]; first compound 8 µM) of 1.06.
